For one assay, the target named is T1, hSGLT2 A395T (Homo sapiens, UniProt P31639, A395T).
T1 construct: expressed in transfected cells; host or cells: Xenopus laevis oocytes injected with hSGLT2 A395T cRNA and MAP17 cRNA
The experiment in a line: cell-based. The note with it: poor expression; n = 4 oocytes. The method, then: (§1) Xenopus laevis (Nasco) oocytes (V–VI) were prepared as previously described[20] and injected with 50 nl of cRNA (1 μg/μl). […] Briefly, oocytes were incubated for 30 min in the presence of 50 μM αMDG (5 μM [^14C]αMDG) in a buffer containing (in mM) 100 NaCl, 2 KCl, 1 MgCl2, 1 CaCl2, and 10 N-(2-hydroxyethyl)piperazine-N′-(2-ethanesulfonic acid) (HEPES)/Tris (pH 7.5). After incubation, oocytes were rinsed thoroughly with ice-cold buffer containing (mM) 100 choline Cl^–, 2 KCl, 1 MgCl2, 1 CaCl2, and 10 HEPES/Tris (pH 7.5), individually lysed with 5% sodium dodecyl sulfate, and assayed for radioactivity.
Injected oocytes were incubated at 18 °C, and after 3–4 days, two electrode voltage clamp experiments were performed as previously described. Briefly, SGLT inward glucose currents were measured as a function of the external Na^+ (0–100 mM NaCl), sugar (0–100 mM αMDG), and inhibitors (0.001–100 μM). Steady-state and hSGLT1 capacitive currents were recorded using voltage steps from a holding voltage, Vh of −60 mV, to voltages in the range of −180 to +50 mV in 20 mV increments. The apparent affinity of αMDG, K0.5, was estimated from plots of the inward current as a function of the external αMDG concentration. Under our experimental conditions, K0.5 is a close approximation of the αMDG binding constant to the Na^+-bound outward conformation of SGLT. The apparent affinity for Na^+, K0.5, was estimated from plots of the αMDG inward current as a function of external Na^+ concentration. For hSGLT1 the interpretation of K0.5 is more complex owing to the presence of two Na^+ binding sites. In this case, the K0.5 is a lumped coefficient for Na^+ binding to the two sites in the outward-facing hSGLT1 conformation. […] The Na^+-to-αMDG stoichiometry was determined from the reversal potential measurements using the Gibbs free energy as previously described. The stoichiometry determinations were reinforced by estimates of αMDG and Na^+ Hill coefficients, and in some cases, by measurement of ^22Na and [^14C]αMDG uptakes under voltage clamp, [21].

In a further assay the target is T2, hSGLT1 D268H (Homo sapiens, UniProt P13866, D268H).
T2 construct: expressed in transfected cells; host or cells: Xenopus laevis oocytes injected with cRNA
T2 sequence (P13866 1-664 D268H): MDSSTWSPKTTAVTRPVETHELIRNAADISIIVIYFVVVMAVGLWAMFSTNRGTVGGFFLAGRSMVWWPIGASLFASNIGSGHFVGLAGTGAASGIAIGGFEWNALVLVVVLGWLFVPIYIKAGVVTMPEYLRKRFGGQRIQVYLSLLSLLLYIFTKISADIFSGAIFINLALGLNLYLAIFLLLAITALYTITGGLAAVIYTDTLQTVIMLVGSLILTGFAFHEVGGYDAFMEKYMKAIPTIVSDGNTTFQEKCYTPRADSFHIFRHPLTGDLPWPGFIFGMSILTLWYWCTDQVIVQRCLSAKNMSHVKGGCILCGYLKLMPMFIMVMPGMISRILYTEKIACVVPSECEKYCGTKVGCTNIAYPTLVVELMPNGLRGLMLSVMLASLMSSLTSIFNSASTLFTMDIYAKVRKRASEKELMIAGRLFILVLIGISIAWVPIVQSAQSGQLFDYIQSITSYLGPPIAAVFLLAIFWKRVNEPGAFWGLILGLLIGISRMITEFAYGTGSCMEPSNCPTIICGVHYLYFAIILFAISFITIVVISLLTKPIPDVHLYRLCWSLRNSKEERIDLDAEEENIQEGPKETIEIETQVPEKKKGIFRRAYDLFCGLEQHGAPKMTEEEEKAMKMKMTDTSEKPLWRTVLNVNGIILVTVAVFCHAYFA
The assay is described as follows: SGLT current measurement in oocytes, hSGLT1 D268H. Format: cell-based. The note with it: 10 mM αMDG, Vm = −50 mV; oocytes, 22 °C. The procedure:
as §1
Injected oocytes were incubated at 18 °C, and after 3–4 days, two electrode voltage clamp experiments were performed as previously described. Briefly, SGLT inward glucose currents were measured as a function of the external Na^+ (0–100 mM NaCl), sugar (0–100 mM αMDG), and inhibitors (0.001–100 μM). Steady-state and hSGLT1 capacitive currents were recorded using voltage steps from a holding voltage, Vh of −60 mV, to voltages in the range of −180 to +50 mV in 20 mV increments. The apparent affinity of αMDG, K0.5, was estimated from plots of the inward current as a function of the external αMDG concentration. […] The Na^+-to-αMDG stoichiometry was determined from the reversal potential measurements using the Gibbs free energy as previously described. […]

For another assay, the target named is T3, hSGLT1 Y290F (Homo sapiens, UniProt P13866, Y290F).
T3 construct: expressed in transfected cells; host or cells: Xenopus laevis oocytes injected with cRNA
T3 sequence (P13866 1-664 Y290F): T2 sequence (P13866 1-664 D268H) with H268D, Y290F
Also on record: method as in PMID 23116249. Particulars: oocytes, 22 °C; cited from earlier work.

Another assay has as its system hSGLT1 F453C. Further details: method as in PMID 22159082. The note with it: oocytes, 22 °C; cited from earlier work.

Substitutions are numbered along the chain they refer to.

T1 sequence (Q13113 whole entry): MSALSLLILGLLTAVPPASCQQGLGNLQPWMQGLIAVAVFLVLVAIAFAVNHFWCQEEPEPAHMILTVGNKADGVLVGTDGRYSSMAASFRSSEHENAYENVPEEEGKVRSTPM
T1 sequence (P31639 whole entry A395T): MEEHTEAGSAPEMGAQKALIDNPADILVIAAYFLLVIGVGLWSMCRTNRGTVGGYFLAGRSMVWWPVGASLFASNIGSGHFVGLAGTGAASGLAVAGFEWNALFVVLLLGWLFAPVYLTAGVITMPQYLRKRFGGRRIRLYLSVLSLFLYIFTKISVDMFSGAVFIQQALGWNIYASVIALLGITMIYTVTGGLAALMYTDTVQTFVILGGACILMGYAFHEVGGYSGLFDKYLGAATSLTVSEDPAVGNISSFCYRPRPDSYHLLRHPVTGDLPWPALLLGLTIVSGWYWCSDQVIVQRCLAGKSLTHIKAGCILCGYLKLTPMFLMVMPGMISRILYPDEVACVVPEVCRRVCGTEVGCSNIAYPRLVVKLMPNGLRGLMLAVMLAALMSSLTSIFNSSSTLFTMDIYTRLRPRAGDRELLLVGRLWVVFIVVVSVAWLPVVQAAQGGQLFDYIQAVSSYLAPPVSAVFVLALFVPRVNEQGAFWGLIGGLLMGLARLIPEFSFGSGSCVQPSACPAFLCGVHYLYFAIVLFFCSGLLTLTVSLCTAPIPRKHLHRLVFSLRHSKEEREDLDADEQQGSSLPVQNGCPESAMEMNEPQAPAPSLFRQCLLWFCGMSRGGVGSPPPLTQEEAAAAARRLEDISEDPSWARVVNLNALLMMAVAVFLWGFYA

`[Na+]` [Na^+]: the “K0.5 Na^+” value is 30 ± 10 mM at hSGLT2 A395T, 17 ± 1.2 mM at hSGLT1 D268H, 20 ± 1[21] mM at hSGLT1 Y290F and 21 ± 1[20] mM in the assay on hSGLT1 F453C.

These data come from paper PMC6286348, “Inhibitor binding mode and allosteric regulation of Na^+-glucose symporters” (Nature Communications, 2018).
